The record followed here is patent publication US20080182842A1, “L-alanine derivatives as a5beta1 antagonists” (ASTRAZENECA AB, priority 2007, published 2008).

Chain of α5β1 integrin (P08648 42-894 limits assumed): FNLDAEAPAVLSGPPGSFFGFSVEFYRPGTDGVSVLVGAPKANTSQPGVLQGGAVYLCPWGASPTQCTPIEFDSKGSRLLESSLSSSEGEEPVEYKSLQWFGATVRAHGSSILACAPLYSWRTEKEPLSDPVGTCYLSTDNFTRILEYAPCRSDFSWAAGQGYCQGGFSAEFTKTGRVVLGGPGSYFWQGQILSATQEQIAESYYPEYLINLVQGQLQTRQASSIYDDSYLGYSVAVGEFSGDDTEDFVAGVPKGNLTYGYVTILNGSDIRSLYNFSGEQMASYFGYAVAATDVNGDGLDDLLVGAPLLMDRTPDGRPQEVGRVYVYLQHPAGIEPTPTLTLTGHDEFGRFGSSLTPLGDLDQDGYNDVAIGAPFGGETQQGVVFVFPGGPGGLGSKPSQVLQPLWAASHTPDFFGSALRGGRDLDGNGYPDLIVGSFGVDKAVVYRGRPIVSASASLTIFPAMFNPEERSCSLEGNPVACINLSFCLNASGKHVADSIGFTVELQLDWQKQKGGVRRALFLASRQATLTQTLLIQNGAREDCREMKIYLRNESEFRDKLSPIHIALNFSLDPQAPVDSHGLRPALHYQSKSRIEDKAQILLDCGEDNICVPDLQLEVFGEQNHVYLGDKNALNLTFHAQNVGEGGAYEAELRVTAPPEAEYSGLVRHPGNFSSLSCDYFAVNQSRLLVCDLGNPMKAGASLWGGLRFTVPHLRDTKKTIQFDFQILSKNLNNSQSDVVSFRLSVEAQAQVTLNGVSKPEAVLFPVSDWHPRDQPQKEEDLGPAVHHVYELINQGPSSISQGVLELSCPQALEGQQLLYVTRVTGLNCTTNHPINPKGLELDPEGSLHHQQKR
Chain of α5β1 integrin (P08648 895-1049 partner limits assumed): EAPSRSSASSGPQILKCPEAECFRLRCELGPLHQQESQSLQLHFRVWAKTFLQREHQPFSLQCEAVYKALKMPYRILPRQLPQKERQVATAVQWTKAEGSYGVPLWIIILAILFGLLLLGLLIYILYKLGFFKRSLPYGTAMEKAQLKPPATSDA
Chain of α5β1 integrin (P05556 21-798): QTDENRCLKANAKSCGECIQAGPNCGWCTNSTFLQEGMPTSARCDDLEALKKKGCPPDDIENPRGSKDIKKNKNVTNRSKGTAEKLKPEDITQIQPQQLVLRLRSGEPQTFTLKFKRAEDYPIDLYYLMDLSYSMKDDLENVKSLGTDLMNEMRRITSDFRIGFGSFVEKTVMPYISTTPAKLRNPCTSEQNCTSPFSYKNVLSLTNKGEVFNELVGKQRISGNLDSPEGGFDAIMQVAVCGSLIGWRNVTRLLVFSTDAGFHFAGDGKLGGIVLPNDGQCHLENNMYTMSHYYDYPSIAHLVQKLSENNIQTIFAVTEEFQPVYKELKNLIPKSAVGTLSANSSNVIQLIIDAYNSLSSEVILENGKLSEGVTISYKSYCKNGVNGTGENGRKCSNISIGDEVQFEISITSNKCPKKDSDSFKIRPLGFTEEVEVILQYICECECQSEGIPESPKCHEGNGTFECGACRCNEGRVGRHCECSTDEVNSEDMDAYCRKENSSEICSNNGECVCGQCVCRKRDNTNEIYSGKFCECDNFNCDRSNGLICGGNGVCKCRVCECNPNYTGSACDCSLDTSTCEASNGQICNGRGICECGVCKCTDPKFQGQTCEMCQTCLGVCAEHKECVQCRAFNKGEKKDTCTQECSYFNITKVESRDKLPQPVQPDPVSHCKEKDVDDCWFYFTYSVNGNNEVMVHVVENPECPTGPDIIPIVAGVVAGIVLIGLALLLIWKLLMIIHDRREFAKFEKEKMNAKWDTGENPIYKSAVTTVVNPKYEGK

In this test the target is α5β1 integrin (Homo sapiens, UniProt P05556+P08648). Nature of the test: In vitro binding assay (a): inhibition of binding of α5β1 integrin to fibronectin fragment Fn9-10 (Origen electrochemiluminescence). Conditions: recombinant human α5β1 vs Fn9-10 ligand; geometric mean where tested more than once. From the text:
(a) In Vitro Binding Assay
The assay determined the ability of compounds to inhibit binding of α5β1 integrin to a cognate ligand, a fragment of human fibronectin. The assay used Origen technology (IGEN International) to measure the compound activity. Briefly, α5β1 integrin was coated onto epoxy-paramagnetic beads (Dynal Biotech UK, Bromborough, Wirral, CH62 3QL, UK, Catalogue No 140.11) and biotinylated-fibronectin ligand was coupled to strepatividin labeled Tag-NHS-Ester (BioVeris Corporation, Witney, Oxfordshire, OX28 4GE, UK, Catalogue No 110034). The ruthenium-labeled tag emits an electrochemiluminescence signal upon stimulation which is detected by the Origen reader. Thus, interaction of integrin and ligand causes association of bead and tag, and the resulting electrochemiluminescence signal reflects the level of integrin interaction with fibronectin.
20 μg of recombinant human α5β1 was coated onto 4×10(7) epoxy-paramagnetic beads according to manufacturers instructions at 4° C. for 24 hours. Integrin coating and corresponding activity was subsequently measured for each batch but typically, 25 ng of coated protein was used per assay well.
A DNA fragment encoding the domains 9-10 (amino-acids 1325-1509) of human fibronectin (Swiss-Prot Accession No. P02751) was isolated from cDNA libraries using standard molecular biology and PCR cloning techniques. The cDNA fragment was sub-cloned into a pT73.3 expression vector containing a GST-epitope tag (developed at AstraZeneca; Bagnall et al., Protein Expression and Purification, 2003, 27: 1-11). Following expression in E. coli, the expressed protein, termed Fn9-10, was purified using the GST-tag using standard purification techniques. The recombinant Fn9-10 was subsequently biotinylated using a EZ-link Sulfo-NHS-LC-Biotinylation kit (Perbio Science UK Ltd., Cramlington, Northumberland, NE23 1WA, UK, Catalogue No. 21335) and made to give a final concentration of approximately 1 mg/ml. Tag-NHS-Ester was labeled with streptavidin by incubation at room temperature following manufacturers instructions and buffer-exchanged into PBS to give a concentration of 0.5 mg/ ml. Immediately prior to the assay, biotinylated-Fn9-10 and Streptavidin-labeled Tag were diluted in Assay Buffer to give a final concentrations of 0.6 ug/ml and 1.5 ug/ml respectively. The Fn9-10 and Tag solutions were then mixed together in equal volumes and incubated on ice for at least 30 minutes prior to the assay.
Test compounds were prepared as 10 mM stock solutions in DMSO (Sigma-Aldrich Company Ltd, Gillingham, Dorset SP8 4XT Catalogue No. 154938) and serially diluted with 4% DMSO to give a range of test concentrations at ×4 required final concentration. Aliquots (20 μl) of each compound dilution were placed into each well of a 384-well round bottomed polypropylene plate (Matrix Technologies, Wilmslow, Cheshire, SK9 3LP, Catalogue No. 4340 384). Each plate also contained control wells: maximum signal was created using wells containing 20 μl of 4% DMSO, and minimum signal corresponding to no binding was created using wells containing 20 μl of 80 mM EDTA (Sigma Catalogue No. E7889).
For the assay, 25 ng(20 ul) of a5b1-bead suspension and 40 μl of the Fn9-10/Tag pre-incubated solution were added to each well containing 20 μl of compound or control solution. Assay plates were then incubated at room temperature for a minimum of 6 hours before being analysed on an Origen plate reader. The minimum value was subtracted from all values, and the signal was plotted against compound concentration to generate IC50 data.
The data in the above table was generated in an assay substantially as described above in relation to Binding Assay (a). Some of the compounds shown in the table were tested more than once in the assay. For those compounds the IC50 value shown is the geometric mean of the measured IC50 values. […]
For the molecule `CNc1cccc(CCOc2ccc(C[C@H](NC(=O)C3CCCN3C)C(=O)O)cc2)n1` (stereo partly drawn) [Example 3, N-[(1-methylpyrrolidin-2-yl)carbonyl]-O-{2-[6-(methylamino)pyridin-2-yl]ethyl}-L-tyrosine], the half-inhibitory concentration (IC50) was determined as 0.107 µM. As to `CNc1cccc(CCOc2ccc(C[C@H](NC(=O)C3CCCN3C(C)C)C(=O)O)cc2)n1` (stereo partly drawn) [Example 4, N-[(1-isopropylpyrrolidin-2-yl)carbonyl]-O-{2-[6-(methylamino)pyridin-2-yl]ethyl}-L-tyrosine], the IC50 turned out to be 0.061 µM.

For `CC1(C(=O)N[C@@H](Cc2ccc(OCCc3ccc4c(n3)NCCO4)cc2)C(=O)O)CCCCC1` [Example 5.1, O-[2-(3,4-dihydro-2H-pyrido[3,2-b][1,4]oxazin-6-yl)ethyl]-N-[(1-methylcyclohexyl)carbonyl]-L-tyrosine], the IC50 came out at 0.011 µM. As for `CC(C)(C(=O)N[C@@H](Cc1ccc(OCCc2ccc3c(n2)NCCO3)cc1)C(=O)O)C(=O)N1CCCC1` [Example 5.2, O-[2-(3,4-dihydro-2H-pyrido[3,2-b][1,4]oxazin-6-yl)ethyl]-N-(2,2-dimethyl-3-oxo-3-pyrrolidin-1-ylpropanoyl)-L-tyrosine], the concentration for half-maximal inhibition (IC50) stood at 0.004 µM.

As for `COC1(C(=O)N[C@@H](Cc2ccc(OCCc3ccc4c(n3)NCCO4)cc2)C(=O)O)CCOCC1` [Example 5.3, O-[2-(3,4-dihydro-2H-pyrido[3,2-b][1,4]oxazin-6-yl)ethyl]-N-[(4-methoxytetrahydro-2H-pyran-4-yl)carbonyl]-L-tyrosine], the IC50 worked out at 0.005 µM.
